According to patent US20220079984A1, “METHOD FOR TREATING CANCER WITH KIDNEY PROTECTION” (Renibus Therapeutics, Inc., priority 2020, published 2022):

Assays:
[1] = system: mice; experiment: SnPP preconditioning against cisplatin nephrotoxicity; type: in vivo; set-up: P creatinine: unit not given here
[2] = system: CD-1 mice; experiment: RBT-3 preconditioning: cisplatin nephrotoxicity and renal cisplatin uptake; type: in vivo; details: cisplatin 15 mg/Kg IP ± 1 mg RBT-3 IV 18 hrs before, 3 days post cisplatin, mean ± SEM
Method: 4. […] Mice were injected with 1 mg RBT-3 or saline vehicle via the tail vein (n, 5 each). […] Free food and water were provided throughout. […] Plasma levels of the proximal tubule enzyme, N-acetyl glucosamidase (“NAG”), were also assessed (BioAssay Systems #DNAG-100; Hayward, Calif.). […] Statistics. Each sample was assayed in duplicate with the average being used for data presentation and analysis. The human hepcidin data are presented as means±1 SD. Baseline plasma hepcidin values for the HV and CKD groups were compared by unpaired Student's t test. Comparisons of hepcidin levels over time were analyzed by ANOVA for repeated measures with 95% confidence intervals being presented. Baseline demographic data were compared by unpaired Student's t test. Mouse data are given as means±1 SEM.

[3] = SnPP 1 umole or vehicle day zero, cisplatin 15 mg/kg day 1, 3 days post cisplatin

Compound	HO-1 mRNA ([1]; 3 days post cisplatin)	IL-6 mRNA ([1]; 3 days post cisplatin)	MCP-1 mRNA ([1]; 3 days post cisplatin)	NGAL mRNA ([1]; 3 days post cisplatin)	P21 mRNAs ([1]; 3 days post cisplatin)	BUN [1, 3]	P creatinine [1, 3]	Tissue LDH ([1]; renal cortical, 3 days post cisplatin)	BUN [2]	Creat [2]	Plasma NAG [2]	protection in cisplatin treated mice, compared to cisplatin alone ([1]; P<0.01)
N.N.[Cl][Pt][Cl] [Cisplatin, cis-diammine dichloroplatinum II]	1.16 ± 0.28	2.51 ± 1.65	10.9 ± 5.7	16.9 ± 12	4.23 ± 0.61	103 ± 22	0.94 ± 0.41	754 ± 54	105 ± 11 mg/dL	0.7 ± 0.1 mg/dL	19.5 ± 0.8 activity units/liter	
C=Cc1c2[n-]c(c1C)/C=c1\[n-]/c(c(C)c1C=C)=C\c1[n-]c(c(CCC(=O)O)c1C)/C=c1\[n-]c(c(C)c1CCC(=O)O)=C2.[Sn+4] [SnPP, tin protoporphyrin]												statistically significant protection
